The source of these data is patent US4076819A, “Thieno-pyridine derivatives and therapeutic composition containing same” (priority 1975, dated 1978).

Data set [1] is described as follows: in vivo. The note with it: mouse, mice, intravenous route, calculated by method of Miller and Tainter, read-out: LD50 /24 hrs/kg body weight.
Data set [2] deals with carrageenin-induced edema. The data set is described as follows: Localized carrageenin-induced edema method (anti-inflammatory action). The note with it: rats, oral 100 mg/kg given 1 h before, simultaneously with, and 1 h and 2.5 h after carrageenin. In kind it is in vivo. Here is the method:
(a) Localized carrageenin-induced edema method
A 1% carrageenin solution (1 ml) is injected in the metatarsal flexor muscles of the right hind limb of rats at time 0. The animals of the treated group are additionally administered orally 100 mg/kg of the test derivative, respectively 1 hour prior to and then simultaneously with the phlogogenic agent, and then one hour and 2.5 hours thereafter. The percent anti-inflammatory activity, as a function of time, is determined by measurements effected with a ROCH micrometer at times 0, 1 hour, 2 hours, 3 hours and 5 hours after carrageenin administration.
(In general: Carrageenan injected into the paw causes an acute inflammation.)

The test system of data set [3] is ovalbumin-induced systemic edema. In words: Ovalbumin-induced systemic edema method (anti-inflammatory action). In kind it is in vivo. The note with it: rats, oral 100 mg/kg given 1 h before and simultaneously with ovalbumin. As for the experimental part:
(b) Ovalbumin-induced systemic edema method
Rats are administered a simultaneous intraperitoneal injection of 1 ml ovalbumin and 0.5 ml of a 1% aqueous Evans Blue solution. The animals of the treated group are additionally administered orally 100 mg/kg of the test derivative, one hour prior to ovalbumin administration and simultaneously with said ovalbumin administration. The intensity of the phenomenon thus induced is scored according to a scale from 1 to 5, according to the progress of the inflammatory syndrome. The determinations are effected after 2 hours and after 3 hours. Thus are determined the mean intensity of the edema and the percent decrease of the edema reaction.

In data set [4] the test system is blood plate aggregation. The data set is described as follows: Inhibiting activity on blood plate aggregation (adenosine diphosphate-induced, turbidimetric assay on plasma of treated rats). In kind it is in vivo. The note with it: Rattus norvegicus, rats administered 100 mg/kg, read-out: percent inhibition on blood plate aggregation. Here is the method: 2. Inhibiting activity on blood plate aggregation
Rat plasma, prepared to contain 600,000±20,000 blood platelets per mm^3 is normally cloudy. Addition of adenosine diphosphate induces blood plate aggregation and, thus, an increase of the light transmission, a phenomenon readily measurable with a spectrophotometer. When the same test is effected with a plasma prepared from the blood of an animal which has been administered 100 mg/kg of a derivative having an inhibiting effect on blood plate aggregation, there is no aggregation of the blood plates and the serum remains cloudy. The turbidimetric assay effected with a spectrophotometer provides a measure of the inhibiting activity on blood plate aggregation of the test derivatives.

Take `O=[N+]([O-])c1ccc(CN2Cc3ccsc3C(O)C2)cc1` (centres unmarked) [Derivative 1, 7-Hydroxy-5-p.nitrobenzyl-4,5,6,7-tetrahydro-thieno[3,2-c]-pyridine]: the LD50 at 24 h in data set [1] is 90 mg/kg.
With `O=C(CN1CCCC1)N1Cc2sccc2C(O)C1` (centres unmarked) [Derivative 2, 4-Hydroxy-6-pyrrolidinoacetyl-4,5,6,7-tetrahydro-thieno[2,3-c]-pyridine], in data set [2], the “Percent anti-inflammatory activity after 1 hour” value turned out to be 35%, the “Percent anti-inflammatory activity after 2 hours” value is reported as 48% and the “Percent anti-inflammatory activity after 5 hours” value is given as 55%. For the same compound, the LD50 at 24 h in data set [1] is 225 mg/kg. Besides, in data set [3], the “Percent decrease (of the edema reaction) After 2 hours” value is 38% and the “Percent decrease (of the edema reaction) After 3 hours” value is 44%.
As a reminder, the inhibition is the share of the control response that was lost under treatment. As to `Cc1ccc(S(=O)(=O)N2Cc3sccc3C(O)C2)cc1` (centres unmarked) [Derivative 4, 4-Hydroxy-6-p.toluenesulfonyl-4,5,6,7-tetrahydro-thieno[2,3-c]-pyridine], the inhibition at 100 mg/kg in data set [4] worked out at 92%.
For the compound `O=C(Nc1ccccc1)N1Cc2sccc2C(O)C1` (centres unmarked) [Derivative 5, 4-Hydroxy-6-N-phenylcarbamoyl-4,5,6,7-tetrahydro-thieno[2,3-c]-pyridine], in data set [2], the “Percent anti-inflammatory activity after 1 hour” value stood at 41%, the “Percent anti-inflammatory activity after 2 hours” value is on record as 50% and the “Percent anti-inflammatory activity after 5 hours” value amounted to 55%. In addition, the inhibition at 100 mg/kg in data set [4] was 89%. Further, in data set [3], the “Percent decrease (of the edema reaction) After 2 hours” value is reported as 33% and the “Percent decrease (of the edema reaction) After 3 hours” value is recorded as 43%.
As for `CC(=O)CCN1Cc2ccsc2C(O)C1` (centres unmarked) [Derivative 7, 7-Hydroxy-5-(3-oxo-butyl)-4,5,6,7-tetrahydro-thieno[3,2-c]-pyridine], in data set [2], the “Percent anti-inflammatory activity after 1 hour” value came to 42%, the “Percent anti-inflammatory activity after 2 hours” value came to 56% and the “Percent anti-inflammatory activity after 5 hours” value turned out to be 60%. Also, the LD50 at 24 h in data set [1] is 260 mg/kg. Also, in data set [3], the “Percent decrease (of the edema reaction) After 2 hours” value was determined as 41% and the “Percent decrease (of the edema reaction) After 3 hours” value is 52%.
On to `CC(=O)OC1CN(Cc2ccccc2Cl)Cc2ccsc21` (centres unmarked) [Derivative 8, 7-Acetoxy-5-o-chlorobenzyl-4,5,6,7-tetrahydro-thieno[3,2-c]-pyridine], for which the LD50 at 24 h in data set [1] is 200 mg/kg.
In the case of `CCCNC(=O)OC1CN(C)Cc2sccc21` (centres unmarked) [Derivative 9, 6-Methyl-4-N-propylcarbamoyloxy-4,5,6,7-tetrahydro-thieno-[2,3-c]-pyridine], the inhibition at 100 mg/kg in data set [4] was 86%. The LD50 at 24 h in data set [1] is 220 mg/kg.
With `CN1Cc2sccc2C(O)C1` (centres unmarked) [Derivative 10], the LD50 at 24 h in data set [1] was 340 mg/kg.
Same read-out and setting: with `CC1c2sccc2C(O)CN1C` (centres unmarked) [Derivative 11] the figure was 220 mg/kg.
For `CC(=O)OC1CN(C)Cc2sccc21` (centres unmarked) [Derivative 12], in data set [2], the “Percent anti-inflammatory activity after 1 hour” value was found to be 37%, the “Percent anti-inflammatory activity after 2 hours” value was determined as 50% and the “Percent anti-inflammatory activity after 5 hours” value is listed as 58%. Moreover, in data set [1], the LD50 at 24 h is 260 mg/kg. Besides, in data set [3], the “Percent decrease (of the edema reaction) After 2 hours” value was 46% and the “Percent decrease (of the edema reaction) After 3 hours” value is reported as 59%.
As for `CNC(=O)OC1CN(C)Cc2sccc21` (centres unmarked) [Derivative 14], in data set [1], the LD50 at 24 h is 280 mg/kg.
On the same count and under the same terms, the same measure for `CC(=O)CCN1Cc2sccc2C(O)C1` (centres unmarked) [Derivative 16]: 250 mg/kg.
In the case of `CC(=O)OC1CN(Cc2ccccc2Cl)Cc2sccc21` (centres unmarked) [Derivative 18], in data set [2], the “Percent anti-inflammatory activity after 1 hour” value is 34%, the “Percent anti-inflammatory activity after 2 hours” value is reported as 44% and the “Percent anti-inflammatory activity after 5 hours” value turned out to be 57%. The inhibition at 100 mg/kg in data set [4] is 74%. Moreover, in data set [3], the “Percent decrease (of the edema reaction) After 2 hours” value is 42% and the “Percent decrease (of the edema reaction) After 3 hours” value is on record as 58%.
As to `OC1CN(Cc2ccc(Cl)cc2)Cc2sccc21` (centres unmarked) [Derivative 20], the LD50 at 24 h in data set [1] was 110 mg/kg.
For `COc1ccc(CN2Cc3sccc3C(OC(C)=O)C2)cc1` (centres unmarked) [Derivative 21], in data set [1], the LD50 at 24 h was 245 mg/kg.
For the compound `O=[N+]([O-])c1ccccc1CN1Cc2sccc2C(O)C1` (centres unmarked) [Derivative 22], the inhibition at 100 mg/kg in data set [4] came out at 93%.
Regarding `O=[N+]([O-])c1ccc(CN2Cc3sccc3C(O)C2)cc1` (centres unmarked) [Derivative 24], the LD50 at 24 h in data set [1] was 150 mg/kg.
Turning to `CC(=O)OC1CN(C(=O)C(Cl)Cl)Cc2sccc21` (centres unmarked) [Derivative 25], in data set [4], the inhibition at 100 mg/kg was determined as 84%.
As for `COc1cc(C(=O)N2Cc3sccc3C(O)C2)cc(OC)c1OC` (centres unmarked) [Derivative 26], in data set [2], the “Percent anti-inflammatory activity after 1 hour” value came to 36%, the “Percent anti-inflammatory activity after 2 hours” value was found to be 49% and the “Percent anti-inflammatory activity after 5 hours” value is listed as 54%. Moreover, in data set [3], the “Percent decrease (of the edema reaction) After 2 hours” value is reported as 51% and the “Percent decrease (of the edema reaction) After 3 hours” value is 63%.
For the compound `CN1Cc2ccsc2C(O)C1` (centres unmarked) [Derivative 29], in data set [2], the “Percent anti-inflammatory activity after 1 hour” value worked out at 45%, the “Percent anti-inflammatory activity after 2 hours” value came out at 55% and the “Percent anti-inflammatory activity after 5 hours” value came to 61%. For the same compound, in data set [4], the inhibition at 100 mg/kg stood at 88%. In addition, the LD50 at 24 h in data set [1] was 350 mg/kg. Moreover, in data set [3], the “Percent decrease (of the edema reaction) After 2 hours” value was determined as 49% and the “Percent decrease (of the edema reaction) After 3 hours” value was found to be 59%.
